Measured values: US5525627A, “Esters of acyl carnitines with long-chain aliphatic alcohols and pharmaceutical compositions containing same having antimycotic activity” (Sigma-Tau Industrie Farmaceutiche Riunite S.p.A., priority 1992, dated 1996)

How the values were obtained:
Candida albicans (PG) = assay: MIC and MFC for yeast and yeast-like strains; format: cell-based
Summary of the method: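 Candida, Cryptococcus, Saccharomyces and Torulopsis strains tested by broth microdilution in Yeast Nitrogen Base with 0.15% asparagine and 1.0% glucose, buffered with 0.165 M MOPS; final inoculum about 5.0×10^4 CFU/ml from overnight (Cryptococcus 48-hour) Sabouraud cultures. MFC from spot-transfer of wells without visible growth onto Sabouraud agar.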

[1] = Test 1: body and lymphoid organ weight in SRBC immunized mice; format: in vivo, mice (male B6 D2F1); conditions: 100 mg/kg/day per os, day -2 through day +2; x ± S.E.
Method: Test 1: Evaluation of the "in vitro-ex vivo" effect of repeated oral administrations of ST 722 on the primary antibody production (Jerne test) in the spleen of SRBC (Sheep Red Blood Cells) immunized mice.
Male B6 D2F1 mice (C. River) aged 8 weeks (6 animals each group) were utilized.
The substance (ST 722) was administered per os at the dose of 100 mg/kg/day from day -2 through day +2 (immunization at day 0). The animals were immunized by intraperitoneal route with a concentration of 1.0×10^8 cells/mouse in 0.2 ml of sterile saline.
Five days later, spleens to be submitted to teasing process were removed from the animals sacrificed by cervical dislocation. After standardization at 1.0×10^7 cells/ml. the splenocytes (0.1 ml) were mixed with warm agar-Hank's (2 ml) and 10% SRBC in PBS (0.2 ml) and seeded in Petri dishes (samples tested in triplicates) and incubated at 37° C. for 60 min.

[2] = Assessment of behaviour and mortality in mice (Irwin's method); design: species or system mice (male Crl:(CD-1)(ICR)BR); conditions: mouse, in vivo; oral, dose 1000 (unit inferred), 4 animals/dose
Method: (§1) ASSESSMENT OF BEHAVIOUR AND MORTALITY IN MICE
(§2) The assessment of normal behaviour in mice was carried out following S. Irwin's method (Psychopharmacologia, 13, 222 [1968]). This method allows alterations in some behavioural, neurophysiologic and neurovegetative parameters to be detected, which are directly observable by the researcher. The study was conducted using male Crl:(CD-1)(ICR)BR mice (Charles River-Italy) weighing 22-25 g. following oral administration of the compounds suspended in carboxymethylcellulose (0.5% by weight in H2 O) to groups of 4 animals/dose.
(§3) The animals were continously kept under observation for five hours following treatment and twice a day in the subsequent five days. Mortality was also observed during the overall test period.

mice = assay: as above; design: species or system mice (male Crl:(CD-1)(ICR)BR); conditions: mouse, in vivo, po
Method: as §1, §2, §3

[3] = system: Torulopsis candida (D.S.); assay: MIC for yeast and yeast-like strains; format: cell-based; conditions: Suzukiozyma candida; 48 hours, 35° C.; read-out: Minimal Inhibitory Concentration (MIC)
Summary of the method: (§4)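 Broth microdilution in Yeast Nitrogen Base with 0.15% asparagine and 1.0% glucose, buffered with 0.165 M MOPS. Inocula from overnight Sabouraud broth cultures (48 h for Cryptococcus), final approx. 5.0×10^4 CFU/ml, mixed with equal volume of compound solution.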

Candida albicans (562) = assay: MIC for yeast and yeast-like strains; format: cell-based; conditions: 48 hours, 35° C., read-out: Minimal Inhibitory Concentration (MIC)
Summary of the method: as §4

dermatophytic fungi = assay: MIC / MFC for dermatophytic fungi, all strains; format: cell-based, Trichophyton, Microsporum, Epidermophyton; conditions: versus susceptible strains
Method: (§5) The following strains were used: Trichophyton menthagrophytes ATCC 9533, Trichophyton rubrum IHEM 4274, Microsporum canis IHEM 3522, Epydermophyton floccosum IHEM 3495. The tested substances were: ST 722, ST 1033, ST 1037, ST 1050, ST 1051, ST 1052,. ST 1053.
(§6) The assay was performed following the same procedure described for the yeasts, by using 7-day fungi cultures grown at 30° C. in Potato Dextrose agar, and harvested with Sabouraud broth and Tween 80 (0.5%).
(§7) After washing with Yeast Nitrogen Base, supplemented with asparagine and glucose (as carbon source), the fungal suspension was fragmented using a tissue grinder until the largest clumps or aggregates were undetectable within the grinder. This fungal suspension was then appropriately diluted in YNB to yield a concentration of 2.0×10^5 infective particles/ml (small mycelium fragments, micro-and macroaleuriospores).
(§8) Volumes of 100 μl both of the fungal suspensions and substance solutions, two-fold serially diluted in assay medium, were distributed into each well of a microtiter plate (96 wells, round bottom), which was incubated at 35° C. for 96 hours.

[4] = system: Trichophyton menthagrophites (ATCC 9533); assay: MIC for dermatophytic fungi; format: cell-based; conditions: ATCC9533, 35° C., 96 hours, read-out: Minimal Inhibitory Concentration (MIC)
Method: as §5, §6, §7, §8

[5] = system: Microsporum canis (IHEM 3522); assay: MIC for dermatophytic fungi; format: cell-based; conditions: 35° C., 96 hours, read-out: Minimal Inhibitory Concentration (MIC)
Method: as §5, §6, §7, §8

[6] = system: Trichophyton rubrum (IHEM 4274); assay: MIC for dermatophytic fungi; format: cell-based; conditions: 35° C., 96 hours, read-out: Minimal Inhibitory Concentration (MIC)
Method: as §5, §6, §7, §8

[7] = system: Epidermophyton floccosum (IHEM 3495); assay: MIC for dermatophytic fungi; format: cell-based; conditions: 35° C., 96 hours, read-out: Minimal Inhibitory Concentration (MIC)
Method: as §5, §6, §7, §8

## CCCCCCCCCCCOC(=O)C[C@H](C[N+](C)(C)C)OC(=O)CC(C)C [ST 722, isovaleryl-L-carnitine undecyl ester chloride]
Candida albicans (PG); 48 h, C. albicans PG
  MFC: 3.12 µg/mL
Candida albicans (PG); 48 hours, 35° C., read-out: Minimal Inhibitory Concentration (MIC)
  MIC: 3.12 µg/mL
[1]
  Body weight: 25.12 ± 0.77 g
  Spleen weight: 94.33 ± 4.12 mg
  Thymus weight: 59.50 ± 3.62 mg
[2]
  mortality at 120 h: 0%
mice
  Symptoms: salivation, diarrhoea
[3]
  MIC: 6.25 µg/mL
Candida albicans (562)
  MIC: 3.12 µg/mL
Dermatophytic fungi
  MIC: 28.1 µg/mL
[4]
  MIC: 25 µg/mL
[5]
  MIC: 25 µg/mL
[6]
  MIC: 12.5 µg/mL
[7]
  MIC: 50 µg/mL
